Drawing on US10100058B2, “Fused heterocyclic compounds as CaM kinase inhibitors” (Gilead Sciences, Inc., priority 2016, dated 2018), this text covers IC50 for 24 compounds.

The target in the experiment is recombinant CaMKIIδ (Homo sapiens (Human), UniProt Q13557). Nature of the experiment: CaMKIIδ biochemical assay (HTRF). The conditions noted are these: 10 pM CaMKIIδ, 110 nM calmodulin, 12 μM ATP, 1 hour; read-out: CAMKIID-HTRF-384V2 (IC50 - nM). The protocol: CaMKIIδ Biochemical Assay
The biochemical activity of recombinant CaMKIIδ was measured by monitoring the phosphorylation of a target peptide using Homogenous Time Resolved Fluorescence (HTRF) technology from CisBio Bioassays.
As usually defined, the IC50 is the midpoint of a concentration-inhibition curve. In the case of `CCN(CC)[C@@H](C)CNC(=O)c1cc(-c2ncco2)nc(-c2cnn3ccc(-c4cccs4)nc23)c1` [Example 339, (S)—N-(2-(diethylamino)propyl)-2-(oxazol-2-yl)-6-(5-(thiophen-2-yl)pyrazolo[1,5-a]pyrimidin-3-yl)isonicotinamide], the IC50 came to 0.35 nM. Then `CCN(CC)[C@@H](C)CNC(=O)c1cc(-c2cn[nH]c2)nc(-c2cnn3ccc(-c4cccs4)nc23)c1` [Example 340, (S)—N-(2-(diethylamino)propyl)-2-(1H-pyrazol-4-yl)-6-(5-(thiophen-2-yl)pyrazolo[1,5-a]pyrimidin-3-yl)isonicotinamide], with 0.05 nM; and `CCN(CC)[C@@H](C)CNC(=O)c1cc(-c2cnn(CCC#N)c2)nc(-c2cnn3ccc(-c4cccs4)nc23)c1` [Example 341, (S)-2-(1-(2-cyanoethyl)-1H-pyrazol-4-yl)-N-(2-(diethylamino)propyl)-6-(5-(thiophen-2-yl)pyrazolo[1,5-a]pyrimidin-3-yl)isonicotinamide], with 0.15 nM; and `CCN(CC)[C@@H](C)CNC(=O)c1cc(-c2cnn(C3COC3)c2)nc(-c2cnn3ccc(-c4cccs4)nc23)c1` [Example 342, (S)—N-(2-(diethylamino)propyl)-2-(1-(oxetan-3-yl)-1H-pyrazol-4-yl)-6-(5-(thiophen-2-yl)pyrazolo[1,5-a]pyrimidin-3-yl)isonicotinamide], with 0.13 nM. Regarding `CCN(CC)[C@@H](C)CNC(=O)c1cc(OC[C@H]2CCCO2)nc(-c2cnn3ccc(-c4cccs4)nc23)c1` [Example 343, N—((S)-2-(diethylamino)propyl)-2-(((R)-tetrahydrofuran-2-yl)methoxy)-6-(5-(thiophen-2-yl)pyrazolo[1,5-a]pyrimidin-3-yl)isonicotinamide], the IC50 worked out at 0.26 nM. Regarding `CCN(CC)[C@@H](C)CNC(=O)c1cc(OC[C@H](C)OC)nc(-c2cnn3ccc(-c4cccs4)nc23)c1` [Example 344, N—((S)-2-(diethylamino)propyl)-2-((S)-2-methoxypropoxy)-6-(5-(thiophen-2-yl)pyrazolo[1,5-a]pyrimidin-3-yl)isonicotinamide], the IC50 is 0.56 nM. The same measure for `CCN(CC)[C@@H](C)CNC(=O)c1cc(O[C@H]2CCOC2)nc(-c2cnn3ccc(-c4cccs4)nc23)c1` [Example 345, N—((S)-2-(diethylamino)propyl)-2-(((S)-tetrahydrofuran-3-yl)oxy)-6-(5-(thiophen-2-yl)pyrazolo[1,5-a]pyrimidin-3-yl)isonicotinamide]: 1.22 nM; for `CCN(CC)[C@@H](C)CNC(=O)c1cc(O[C@@H]2CCOC2)nc(-c2cnn3ccc(-c4cccs4)nc23)c1` [Example 346, N—((S)-2-(diethylamino)propyl)-2-(((R)-tetrahydrofuran-3-yl)oxy)-6-(5-(thiophen-2-yl)pyrazolo[1,5-a]pyrimidin-3-yl)isonicotinamide]: 1.07 nM; for `CCN(CC)[C@@H](C)CNC(=O)c1cc(OCC2(C)COC2)nc(-c2cnn3ccc(-c4cccs4)nc23)c1` [Example 349, (S)—N-(2-(diethylamino)propyl)-2-((3-methyloxetan-3-yl)methoxy)-6-(5-(thiophen-2-yl)pyrazolo[1,5-a]pyrimidin-3-yl)isonicotinamide]: 0.56 nM. Regarding `CCN(CC)[C@@H](C)CNC(=O)c1cc(OCCc2cnccn2)nc(-c2cnn3ccc(-c4cccs4)nc23)c1` [Example 350, (S)—N-(2-(diethylamino)propyl)-2-(2-(pyrazin-2-yl)ethoxy)-6-(5-(thiophen-2-yl)pyrazolo[1,5-a]pyrimidin-3-yl)isonicotinamide], the IC50 was 0.31 nM. In the case of `CCN(CC)[C@@H](C)CNC(=O)c1cc(OCCCOC)nc(-c2cnn3ccc(-c4cccs4)nc23)c1` [Example 351, (S)—N-(2-(diethylamino)propyl)-2-(3-methoxypropoxy)-6-(5-(thiophen-2-yl)pyrazolo[1,5-a]pyrimidin-3-yl)isonicotinamide], the half-maximal inhibitory concentration (IC50) turned out to be 0.34 nM. The same measure for `CCN(CC)[C@@H](C)CNC(=O)c1cc(OCCN2CCOCC2)nc(-c2cnn3ccc(-c4cccs4)nc23)c1` [Example 352, (S)—N-(2-(diethylamino)propyl)-2-(2-morpholinoethoxy)-6-(5-(thiophen-2-yl)pyrazolo[1,5-a]pyrimidin-3-yl)isonicotinamide]: 0.21 nM; for `CCN(CC)[C@@H](C)CNC(=O)c1cc(OCC(C)(C)O)nc(-c2cnn3ccc(-c4cccs4)nc23)c1` [Example 353, (S)—N-(2-(diethylamino)propyl)-2-(2-hydroxy-2-methylpropoxy)-6-(5-(thiophen-2-yl)pyrazolo[1,5-a]pyrimidin-3-yl)isonicotinamide]: 0.1 nM; for `CCN(CC)[C@@H](C)CNC(=O)c1cc(OCc2cccnc2)nc(-c2cnn3ccc(-c4cccs4)nc23)c1` [Example 354, (S)—N-(2-(diethylamino)propyl)-2-(pyridin-3-ylmethoxy)-6-(5-(thiophen-2-yl)pyrazolo[1,5-a]pyrimidin-3-yl)isonicotinamide]: 1.05 nM. Regarding `CCN(CC)[C@@H](C)CNC(=O)c1cc(OCc2ccc[n+]([O-])c2)nc(-c2cnn3ccc(-c4cccs4)nc23)c1` [Example 355, (S)-3-(((4-((2-(diethylamino)propyl)carbamoyl)-6-(5-(thiophen-2-yl)pyrazolo[1,5-a]pyrimidin-3-yl)pyridin-2-yl)oxy)methyl)pyridine 1-oxide], the IC50 came to 0.54 nM. On to `CCC(CNC(=O)c1cc(-c2cnn3ccc(-c4cccs4)nc23)nc(N2CC[C@H]2C(=O)NC)c1)N(CC)CC` (stereo partly drawn) [Example 356, N-(2-(diethylamino)butyl)-2-((S)-2-(methylcarbamoyl)azetidin-1-yl)-6-(5-(thiophen-2-yl)pyrazolo[1,5-a]pyrimidin-3-yl)isonicotinamide], for which the IC50 came to 0.7 nM.

With `CCCN(CC)[C@@H](C)CNC(=O)c1cc(-c2cnn3ccc(-c4cccs4)nc23)nc(N2CC[C@H]2C(=O)NC)c1` [Example 357, N—((S)-2-(ethyl(propyl)amino)propyl)-2-((S)-2-(methylcarbamyl)azetidin-1-yl)-6-(5-(thiophen-2-yl)pyrazolo[1,5-a]pyrimidin-3-yl)isonicotinamide], the IC50 was 0.27 nM.

Consider `CCN(CC)[C@@H](CO)CNC(=O)c1cc(-c2cnn3ccc(-c4cccs4)nc23)nc(N2CC[C@H]2C(=O)NC)c1` [Example 358, N—((R)-2-(diethylamino)-3-hydroxypropyl)-2-((S)-2-(methylcarbamoyl)azetidin-1-yl)-6-(5-(thiophen-2-yl)pyrazolo[1,5-a]pyrimidin-3-yl)isonicotinamide], for which the half-maximal inhibitory concentration (IC50) stood at 0.46 nM.

As for `CCN(CC)[C@@H](CO)CNC(=O)c1cc(-c2cnn3ccc(-c4cccs4)nc23)nc(N2CC[C@H]2C(=O)NC)c1` [Example 359, N—((R)-2-(diethylamino)-3-hydroxypropyl)-2-((S)-2-(methylcarbamoyl)azetidin-1-yl)-6-(5-(thiophen-2-yl)pyrazolo[1,5-a]pyrimidin-3-yl)isonicotinamide], the IC50 was determined as 0.35 nM. With `CCN(CC)CCNC(=O)c1cc(-c2cnn3ccc(-c4cccs4)nc23)nc(N2CC[C@H]2C(=O)NC)c1` [Example 360, (S)—N-(2-(diethylamino)ethyl)-2-(2-(methylcarbamoyl)azetidin-1-yl)-6-(5-(thiophen-2-yl)pyrazolo[1,5-a]pyrimidin-3-yl)isonicotinamide], the half-maximal inhibitory concentration (IC50) turned out to be 2.98 nM.

Turning to `CCN(CC)[C@@H](C)CNC(=O)c1cc(-c2cnn3ccc(-c4ccc(F)s4)nc23)nc(N2CC[C@H]2C(=O)NC)c1` [Example 361, N—((S)-2-(diethylamino)propyl)-2-(5-(5-fluorothiophen-2-yl)pyrazolo[1,5-a]pyrimidin-3-yl)-6-((S)-2-(methylcarbamoyl)azetidin-1-yl)isonicotinamide], the IC50 came to 0.15 nM. Take `CCN(CC)[C@@H](C)CNC(=O)c1cncc(-c2cnn3ccc(-c4cccs4)nc23)c1` [Example 362, (S)—N-(2-(diethylamino)propyl)-5-(5-(thiophen-2-yl)pyrazolo[1,5-a]pyrimidin-3-yl)nicotinamide]: the IC50 is 0.52 nM. As for `CCN(CC)[C@@H](C)CNC(=O)c1cc(-c2cnn3ccc(-c4cccs4)nc23)ccn1` [Example 363, (S)—N-(2-(diethylamino)propyl)-4-(5-(thiophen-2-yl)pyrazolo[1,5-a]pyrimidin-3-yl)picolinamide], the half-inhibitory concentration (IC50) was determined as 1.3 nM.

As to `CCN(CC)[C@@H](C)CNC(=O)c1cccc(-c2cnn3ccc(-c4cccs4)nc23)n1` [Example 364, (S)—N-(2-(diethylamino)propyl)-6-(5-(thiophen-2-yl)pyrazolo[1,5-a]pyrimidin-3-yl)picolinamide], the IC50 came to 715 nM.
